Laboratory results from PubChem BioAssay (NCI).
Where “and” joins values, the source holds several entries; their conditions need not be identical. Identical values can stand only once.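 Briefly, cells in 96-well plates were exposed to five compound concentrations for 48 h, and endpoints were estimated by linear interpolation. Here, GI50 denotes the concentration required for 50% inhibition of growth. At the TGI there is no net growth.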

How the values were obtained:
Test in all cases: NCI-60 cell line screen, 48 h
SR leukemia = tested on: SR leukemia
UACC-257 melanoma = tested on: UACC-257 melanoma
HCT-15 colon = tested on: HCT-15 colon
PC-3 prostate = tested on: PC-3 prostate
SK-MEL-5 melanoma = tested on: SK-MEL-5 melanoma
SW-620 colon = tested on: SW-620 colon
DU-145 prostate = tested on: DU-145 prostate
A498 renal = tested on: A498 renal
KM12 colon = tested on: KM12 colon
ACHN renal = tested on: ACHN renal

Compound	GI50 (SR leukemia) [µM]	TGI (SR leukemia)	GI50 (UACC-257 melanoma) [µM]	TGI (UACC-257 melanoma)	GI50 (HCT-15 colon) [µM]	TGI (HCT-15 colon) [µM]	GI50 (PC-3 prostate) [µM]	TGI (PC-3 prostate)	GI50 (SK-MEL-5 melanoma) [µM]	TGI (SK-MEL-5 melanoma)	GI50 (SW-620 colon) [µM]	TGI (SW-620 colon)	GI50 (DU-145 prostate) [µM]	TGI (DU-145 prostate)	GI50 (A498 renal) [µM]	TGI (A498 renal)	GI50 (KM12 colon) [µM]	TGI (KM12 colon)	GI50 (ACHN renal) [µM]	TGI (ACHN renal)
C=C1C(=O)O[C@H]2[C@H]1CC/C(COC(=O)CCCc1c[nH]c3ccccc13)=C\CC[C@@]1(C)O[C@@H]21	1.73	6.37 µM	2.03	3.96 µM	1.61	3.99	1.92	4.62 µM	1.74	3.13 µM	1.84	4.36 µM	1.67	3.18 µM	11.9	24.3 µM	1.89	4.31 µM	–	–
CCCCCCCCCCCCCCCCOP(=O)([O-])OCC[N+](C)(C)C	0.546	3.46 µM and 28.5 µM	2.31	6.98 µM and 64.7 µM	0.842	–	0.277	1.51 µM and 7.73 µM	1.92	5.35 µM and 52 µM	2.08	13.9 µM and 57 µM	4.01	14.7 µM and 39.9 µM	1.13	5.24 µM and 37.4 µM	0.341	1.78 µM and 10.3 µM	1.6	3.63 µM and 30.8 µM
Nc1ccc(COC(O)CN2CCCCC2)cc1[N+](=O)[O-] (stereo not given)	–	> 100 µM	–	> 100 µM	–	> 100	–	> 100 µM	–	> 100 µM	–	> 100 µM	–	> 100 µM	–	> 100 µM	–	> 100 µM	–	> 100 µM
Cn1nc(C(F)(F)F)c(-c2cc(C(F)(F)F)cc(C(F)(F)F)c2)c1-c1ccc(OCc2ccc(Cl)cc2)cc1O	1.79	7.51 µM	2.07	6.11 µM	2.14	10.7	1.88	11.5 µM	1.45	3.11 µM	3	11 µM	3.9	14.8 µM	1.31	5.13 µM	2.64	10.7 µM	2.54	10 µM
O=C(c1ccco1)c1c(C(F)(F)F)n([O-])c2cc(C(F)(F)F)ccc2[n+]1=O	0.0394	0.265 µM	1.55	3.27 µM	0.404	0.842	0.163	0.559 µM	0.683	1.7 µM	0.498	1.1 µM	0.549	1.21 µM	1.53	3.28 µM	0.516	1.19 µM	0.338	0.748 µM
CCCCCCCC(=O)SCC/C=C/[C@@H]1CC(=O)NCc2nc(cs2)C2=N[C@@](C)(CS2)C(=O)N[C@@H](C(C)C)C(=O)N1	< 0.0112	> 100 µM	< 0.01	0.0392 µM	3.42	97	< 0.0125	> 100 µM	0.0233	0.977 µM	0.0645	5.57 µM	< 0.01	> 100 µM	0.0244	0.333 µM	0.0389	> 100 µM	0.508	12 µM
CC([C@H]1CC=C2C3CCC4=C[C@@H](N(C)C)CC[C@]4(C)C3CC[C@@]21C)N(C)C (stereo not given in full)	0.876	4.19 µM	6.1	19.4 µM	1.38	3.82	2.15	7.72 µM	1.35	2.71 µM	2.49	8.24 µM	6.63	20.4 µM	3.27	13.9 µM	2.77	11.9 µM	4.07	14.7 µM
Cc1nc2ccccn2c1NC(=O)NNC(=S)Nc1ccc(F)cc1	19.5	> 100 µM	> 100	> 100 µM	> 100	> 100	> 100	> 100 µM	> 100	> 100 µM	> 100	> 100 µM	> 100	> 100 µM	> 100	> 100 µM	> 100	> 100 µM	> 100	> 100 µM
CC(=O)OC12c3ccccc3-c3ccccc3C1C(C(=O)O)C2C(=O)O (stereo not given)	–	> 10 µM	–	> 10 µM	–	> 10	–	> 10 µM	–	> 10 µM	–	> 10 µM	–	> 10 µM	–	> 10 µM	–	> 10 µM	–	> 10 µM
Cc1ccc2c(c1)C(=O)c1c-2c(OCCCN(C)C)nc2ccccc12	0.316	1.38 µM	3.06	5.82 µM	0.548	1.94	2.26	7.65 µM	4.14	16.3 µM	0.587	2.02 µM	2.81	13.9 µM	4.02	14.3 µM	1.22	2.72 µM	0.731	2.11 µM
O=C(Nc1ccc(F)cc1)Nc1ccc(Br)c(C(F)(F)F)c1	1.88	6.49 µM	2.73	7.51 µM	2.35	10.8	0.847	9.24 µM	1.67	3.11 µM	3.22	12.7 µM	3.27	13.4 µM	1.92	5.15 µM	1.96	7.92 µM	2.09	7.64 µM
Cc1[nH]c(N)nc(=S)c1CCC(=O)O	–	> 100 µM	–	> 100 µM	–	> 100	–	> 100 µM	–	> 100 µM	–	> 100 µM	–	> 100 µM	–	> 100 µM	–	> 100 µM	–	> 100 µM
N#C/C(=N\Nc1ccccc1)C(=O)Nc1cc(-c2ccccc2)nn1-c1ccccc1	5.19	> 100 µM	2.47	9.93 µM	2.98	> 100	2.13	9.48 µM	1.54	4.86 µM	3.15	> 100 µM	4.08	> 100 µM	–	–	2.97	> 100 µM	2.98	> 100 µM
